{
  "source": "patent US12257252B2",
  "about": "“Compositions and methods for increasing tetrahydrobiopterin plasma exposure” (PTC Therapeutics MP, Inc., priority 2018, dated 2025)",
  "key": {"[1]": {"assay": "Pharmacokinetics of multiple doses of sepiapterin in fed subjects", "assay_type": "in vivo", "from_the_text": "Methods: Three cohorts of eight fed subjects each were randomized to receive once-daily sepiapterin or placebo for 7 days in a 6:2 ratio. A sentinel dose strategy was also used for administration of the highest sepiapterin dose."}, "[2]": {"assay": "CSF levels of sepiapterin, BH4, BH2 and neurotransmitter metabolites after sepiapterin", "assay_type": "in vivo", "details": "60 mg/kg; Day 1 or Day 7 +/-30 minutes from BH4 Tmax", "description": "The cerebrospinal fluid (CSF) of selected subjects is collected via lumbar puncture on Day1 (before dose) and on Day 7 (i.e., following daily dosing for 7 days) approximately 30 minutes from time of the maximum observed plasma BH4 concentration (Tmax) as determined from the blood analysis. The cerebral spinal fluid (CSF) is analyzed by MNG Labs. Descriptive statistics are provided to characterize any changes in neurotransmitter metabolism between the Day 1, and Day 7 sample results. Method: Analyses were conducted in CSF samples of subjects administered 60 mg/kg sepiapterin or placebo. The following analytes were measured: sepiapterin, BH4, BH2, homovanillic acid (HVA), and 5-hydroxyindoleacetic acid (HIAA). Descriptive (n, mean, SD, median, minimum, maximum) statistics for these analytes at Day 1 and Day 7+/−30 minutes from Tmax and change from baseline at Day 7 were determined for each analyte."}, "[3]": {"assay": "Food effect on sepiapterin: plasma sepiapterin and BH4 in fasted and fed subjects", "assay_type": "in vivo", "details": "sepiapterin 10 mg/kg oral", "description": "Method: Subjects received 2 oral doses of sepiapterin (10 mg/kg) separated by 1 week in a fasted and fed state. Subjects were fed a standard high-fat (approximately 50 percent of total caloric content of the meal) and high-calorie (approximately 800 to 1000 calories) meal starting 30 minutes prior to receiving their second oral dose of sepiapterin on Day 8.\nSampling for PK analysis occurred predose on Days 1 and 8 (within 30 minutes before dosing) and 0.5 hr, 1 hr, 2 hr, 4 hr, 8 hr, 12 hr, and 24 hr after the doses on Days 1 and 8. The blood concentrations of sepiapterin and BH4 were analyzed by MNG Labs."}, "[4]": {"assay_type": "in vivo", "description": "Method: Twelve subjects were given a single dose (10 mg/kg) of sepiapterin under fasting conditions and then 7 days later under fed conditions. Standard definitions of adverse events (AE) were used. All-cause AE were those that occurred at any time; treatment-emergent adverse events (TEAE) were those that occurred at or after the time of administration of study treatment. TEAEs related to study drug were based on the opinion of the investigator. Serious AE were defined as life threatening or caused death, hospitalization or prolongation of existing hospitalization, or were a persistent or significant disability/incapacity or a substantial disruption of the ability to conduct normal life functions, or a congenital anomaly/birth defect."}},
  "note": "Like-named read-outs stand apart in the source and are kept apart here.",
  "data": [
    {"smiles": "C[C@H](O)C(=O)C1=Nc2c(nc(N)[nH]c2=O)NC1", "note": "[sepiapterin, Sepiapterin]", "values": [
      {"measurement": "AUC0-24 of sepiapterin", "setting": "[1]; Day 7, 60 mg/kg once daily", "value": 23, "unit": "ng·h/mL"},
      {"measurement": "Drug accumulation (plasma sepiapterin and BH4 after 1 and 7 days of treatment)", "setting": "[1]; once daily for 7 days", "value": "no drug accumulation"},
      {"measurement": "Sepiapterin in the CSF", "setting": "[2]", "value": "not detected"},
      {"measurement": "Maximum sepiapterin concentration in plasma", "setting": "[3]; fasted, 0 h (predose)", "value": 0, "unit": "nM"},
      {"measurement": "Mean sepiapterin concentration in plasma", "setting": "[3]; fasted, 0 h (predose)", "value": 0, "unit": "nM"},
      {"measurement": "Median sepiapterin concentration in plasma", "setting": "[3]; fasted, 0 h (predose)", "value": 0, "unit": "nM"},
      {"measurement": "Maximum sepiapterin concentration in plasma", "setting": "[3]; fasted, 8 h", "value": 0, "unit": "nM"},
      {"measurement": "Mean sepiapterin concentration in plasma", "setting": "[3]; fasted, 8 h", "value": 0, "unit": "nM"},
      {"measurement": "Median sepiapterin concentration in plasma", "setting": "[3]; fasted, 8 h", "value": 0, "unit": "nM"},
      {"measurement": "Maximum sepiapterin concentration in plasma", "setting": "[3]; fasted, 12 h", "value": 0, "unit": "nM"},
      {"measurement": "Mean sepiapterin concentration in plasma", "setting": "[3]; fasted, 12 h", "value": 0, "unit": "nM"},
      {"measurement": "Median sepiapterin concentration in plasma", "setting": "[3]; fasted, 12 h", "value": 0, "unit": "nM"},
      {"measurement": "Maximum sepiapterin concentration in plasma", "setting": "[3]; fasted, 24 h", "value": 0, "unit": "nM"},
      {"measurement": "Mean sepiapterin concentration in plasma", "setting": "[3]; fasted, 24 h", "value": 0, "unit": "nM"},
      {"measurement": "Median sepiapterin concentration in plasma", "setting": "[3]; fasted, 24 h", "value": 0, "unit": "nM"},
      {"measurement": "Maximum sepiapterin concentration in plasma", "setting": "[3]; fed, 0 h (predose)", "value": 0, "unit": "nM"},
      {"measurement": "Mean sepiapterin concentration in plasma", "setting": "[3]; fed, 0 h (predose)", "value": 0, "unit": "nM"},
      {"measurement": "Median sepiapterin concentration in plasma", "setting": "[3]; fed, 0 h (predose)", "value": 0, "unit": "nM"},
      {"measurement": "concentration at 2 h", "setting": "[3]; fed, 0 h (predose), read-out: Minimum sepiapterin concentration in plasma", "value": 0, "unit": "nM"},
      {"measurement": "Median sepiapterin concentration in plasma", "setting": "[3]; fed, 0.5 h", "value": 0, "unit": "nM"},
      {"measurement": "concentration at 2 h", "setting": "[3]; fed, 0.5 h, read-out: Minimum sepiapterin concentration in plasma", "value": 0, "unit": "nM"},
      {"measurement": "concentration at 2 h", "setting": "[3]; fed, 4 h, read-out: Minimum sepiapterin concentration in plasma", "value": 0, "unit": "nM"},
      {"measurement": "Median sepiapterin concentration in plasma", "setting": "[3]; fed, 8 h", "value": 0, "unit": "nM"},
      {"measurement": "concentration at 2 h", "setting": "[3]; fed, 8 h, read-out: Minimum sepiapterin concentration in plasma", "value": 0, "unit": "nM"},
      {"measurement": "Maximum sepiapterin concentration in plasma", "setting": "[3]; fed, 12 h", "value": 0, "unit": "nM"},
      {"measurement": "Mean sepiapterin concentration in plasma", "setting": "[3]; fed, 12 h", "value": 0, "unit": "nM"},
      {"measurement": "Median sepiapterin concentration in plasma", "setting": "[3]; fed, 12 h", "value": 0, "unit": "nM"},
      {"measurement": "concentration at 2 h", "setting": "[3]; fed, 12 h, read-out: Minimum sepiapterin concentration in plasma", "value": 0, "unit": "nM"},
      {"measurement": "Maximum sepiapterin concentration in plasma", "setting": "[3]; fed, 24 h", "value": 0, "unit": "nM"},
      {"measurement": "Mean sepiapterin concentration in plasma", "setting": "[3]; fed, 24 h", "value": 0, "unit": "nM"},
      {"measurement": "Median sepiapterin concentration in plasma", "setting": "[3]; fed, 24 h", "value": 0, "unit": "nM"},
      {"measurement": "concentration at 2 h", "setting": "[3]; fed, 24 h, read-out: Minimum sepiapterin concentration in plasma", "value": 0, "unit": "nM"},
      {"measurement": "concentration at 0 h", "setting": "[3]; human, plasma, fasted, 0 h (predose), read-out: Minimum sepiapterin concentration in plasma", "value": 0, "unit": "nM"},
      {"measurement": "concentration at 0.5 h", "setting": "[3]; human, plasma, fasted, 0.5 h, read-out: Minimum sepiapterin concentration in plasma", "value": 0, "unit": "nM"},
      {"measurement": "concentration at 4 h", "setting": "[3]; human, plasma, fasted, 4 h, read-out: Minimum sepiapterin concentration in plasma", "value": 0, "unit": "nM"},
      {"measurement": "concentration at 8 h", "setting": "[3]; human, plasma, fasted, 8 h, read-out: Minimum sepiapterin concentration in plasma", "value": 0, "unit": "nM"},
      {"measurement": "concentration at 12 h", "setting": "[3]; human, plasma, fasted, 12 h, read-out: Minimum sepiapterin concentration in plasma", "value": 0, "unit": "nM"},
      {"measurement": "concentration at 24 h", "setting": "[3]; human, plasma, fasted, 24 h, read-out: Minimum sepiapterin concentration in plasma", "value": 0, "unit": "nM"},
      {"measurement": "concentration at 1 h", "setting": "[3]; human, plasma, fed, 1 h, read-out: Minimum sepiapterin concentration in plasma", "value": 0, "unit": "nM"},
      {"measurement": "concentration at 2 h", "setting": "[3]; human, plasma, fed, 2 h, read-out: Minimum sepiapterin concentration in plasma", "value": 0, "unit": "nM"},
      {"measurement": "Geometric mean ratio (fasted/fed, 90% CI) for plasma sepiapterin AUClast", "setting": "[3]; fasted/fed", "value": "1.29 (0.84 to 2.00)"},
      {"measurement": "Geometric mean ratio (fasted/fed, 90% CI) for plasma sepiapterin Cmax", "setting": "[3]; fasted/fed", "value": "1.57 (1.21 to 2.0)"},
      {"measurement": "Cmax of BH4 in the plasma, fed compared to fasted", "setting": "[3]; fed vs fasted", "value": "much higher"},
      {"measurement": "Cmax of sepiapterin in the plasma, fed compared to fasted", "setting": "[3]; fed vs fasted", "value": "much lower"},
      {"measurement": "TEAE", "setting": "[4]; human, in vivo, 10 mg/kg", "value": 4},
      {"measurement": "TEAE related to study drug", "setting": "[4]; human, in vivo, 10 mg/kg", "value": 1},
      {"measurement": "≥1 AE", "setting": "[4]; human, in vivo, 10 mg/kg", "value": 5},
      {"measurement": "Incidence of adverse events, fed compared to fasted subjects", "setting": "[4]; single dose 10 mg/kg, fed vs fasted", "value": "decreased incidence of adverse events"}
    ]}
  ]
}
